From patent US20150352134A1, “COMPOSITION FOR TOPICAL SKIN APPLICATION CONTAINING GINSENOSIDE F2 DERIVED FROM HYDROPONIC GINSENG” (AMOREPACIFIC CORPORATION, priority 2012, published 2015)

What was measured:
3T3-L1 cells = assay: Lipogenesis inhibition in 3T3-L1 cells (Sudan III dyeing); assay type: cell-based, mouse; conditions: 50 µM
Method: The mouse fibroblast cell line, 3T3-L1 cells are immobilized in a 6-well culture plate filled with Dulbecco's modified eagle's medium (DMEM) (GIBCO BRL, Life Technologies, Inc.) containing 10% fetal bovine serum (FBS) at an amount of 1×10^5 cells/well. After 2 days, the used medium is replaced with a new DMEM (containing 10% FBS) medium to culture the cells for 2 days. […] After 5 days, the used DMEM medium is replaced with a normal medium (DMEM containing 10% FBS). The cells are cultured and observed until they are morphologically changed into fat cells. In order to evaluate the ginsenoside F2 in regards to the inhibitory effect on the fat accumulation in the fat cells, the completely differentiated 3T3-L1 fat cells are dyed with Sudan III ([…], Sigma-Aldrich). The fat cells are immobilized with 4% para-formaldehyde (pH 7.2) at the room temperature in a phosphate buffer solution. The fat cells are washed with phosphate-buffered saline (PBS) and then dyed with Sudan III. The picture of the fat cells is taken for visual evaluation. The control uses a medium using neither a test substance nor a comparative substance. The comparative control group is treated with 50 μM caffeine. The fat accumulation inhibitory ability is evaluated based on the degree of dying. The degree of dying is graded +++, ++, +, and - in the decreasing order.

[1] = system: prostaglandin generation in macrophagocytes collected from the abdominal cavity of a mouse; assay: Prostaglandin generation inhibition in LPS-treated macrophagocytes (ELISA); assay type: cell-based; conditions: 100 μl of ginsenoside F2
Method: The inflammatory effect is evaluated in terms of the inhibitory effect on prostaglandin generation. Ginsenoside F2 is used to measure the effect on macrophagocytes. Firstly, macrophagocytes collected from the abdominal cavity of a mouse are treated with aspirin to have the final concentration of 500 µM, causing irreversible inhibition on the activity of cyclooxygenase (COX) remaining in the macrophagocytes. Then, 100 μl of the suspension is put in each well of a 96-well culture plate and cultured in an incubator under the conditions of 5% CO2 and 37° C. for 2 hours to immobilize the macrophagocytes on the surface of the container. Subsequently, the immobilized macrophagocytes are washed with PBS three times and used in the inflammatory improvement test. […] Then, the macrophagocytes are treated with 100 μl of ginsenoside F2, and the isolated prostaglandin is quantitatively analyzed by way of ELISA (Enzyme-Linked ImmunoSorbent Assey).
In this regard, the prostaglandin generation inhibitory activity of the ginsenoside F2 is determined by the reduced amount of prostaglandin generated in the LPS-treated group in comparison with the case of the control in terms of the percentage amount of the prostaglandin decreased by treatment with LPS and the sample, while the difference in the amount of the generated prostaglandin between the LPS-treated group and the control group is set to 100%.

## Cn1c(=O)c2c(ncn2C)n(C)c1=O [Comparative group, caffeine, reference compound]
3T3-L1 cells
  Inhibition rate (%) (degree of dying with Sudan III): +

## CC(=O)Oc1ccccc1C(=O)O [Control (aspirin-treated group), aspirin, reference compound]
[1]
  prostaglandin generation (Blank = 100%): 25.0%
